Results published in ChEMBL document CHEMBL3045835, “Comparative study of conventional and microwave-assisted synthesis of some Schiff bases and their potential as antimicrobial agents” (2012).
In brackets after ≈: the same amount, converted by molar mass.

What was measured:
Type in all cases: functional
Micrococcus luteus [1] = test: Antibacterial activity against Micrococcus luteus MTCC 1538 at 1500 ug/ml after 18 hr by cup-plate method; details: MTCC 1538, 18 h, read-out: DIZ
Micrococcus luteus [2] = test: Antibacterial activity against Micrococcus luteus MTCC 1538 after 24 hr by broth dilution method; details: MTCC 1538, 24 h
Aspergillus niger [3] = test: Antifungal activity against Aspergillus niger MTCC 2546 at 100 ug/ml after 18 hr by cup-plate method; details: MTCC 2546, 18 h, read-out: DIZ
Pseudomonas aeruginosa [4] = test: Antibacterial activity against Pseudomonas aeruginosa MTCC 424 at 1000 ug/ml after 18 hr by cup-plate method; details: MTCC 424, 18 h, read-out: DIZ
Micrococcus luteus [5] = test: Antibacterial activity against Micrococcus luteus MTCC 1538 at 200 ug/ml after 18 hr by cup-plate method; details: MTCC 1538, 18 h, read-out: DIZ
Pseudomonas fluorescens [6] = test: Antibacterial activity against Pseudomonas fluorescens MTCC 2421 at 100 ug/ml after 18 hr by cup-plate method; details: MTCC 2421, 18 h, read-out: DIZ
Pseudomonas fluorescens [7] = test: Antibacterial activity against Pseudomonas fluorescens MTCC 2421 at 1000 ug/ml after 18 hr by cup-plate method; details: MTCC 2421, 18 h, read-out: DIZ
Penicillium chrysogenum [8] = test: Antifungal activity against Penicillium chrysogenum MTCC 161 at 1000 ug/ml after 18 hr by cup-plate method; details: MTCC 161, 18 h, read-out: DIZ
Bacillus subtilis [9] = test: Antibacterial activity against Bacillus subtilis MTCC 441 at 500 ug/ml after 18 hr by cup plate method; details: MTCC 441, 18 h, read-out: DIZ
Staphylococcus aureus [10] = test: Antibacterial activity against Staphylococcus aureus MTCC 1430 at 1500 ug/ml after 18 hr by cup-plate method; details: MTCC 1430, 18 h, read-out: DIZ
Aspergillus niger [11] = test: Antifungal activity against Aspergillus niger MTCC 2546 at 1000 ug/ml after 18 hr by cup-plate method; details: MTCC 2546, 18 h, read-out: DIZ
Bacillus pumilus [12] = test: Antibacterial activity against Bacillus pumilus MTCC 1456 at 100 ug/ml after 18 hr by cup-plate method; details: MTCC 1456, 18 h, read-out: DIZ
Pseudomonas aeruginosa [13] = test: Antibacterial activity against Pseudomonas aeruginosa MTCC 424 at 200 ug/ml after 18 hr by cup-plate method; details: MTCC 424, 18 h, read-out: DIZ
Bacillus pumilus [14] = test: Antibacterial activity against Bacillus pumilus MTCC 1456 at 1500 ug/ml after 18 hr by cup-plate method; details: MTCC 1456, 18 h, read-out: DIZ
Aspergillus niger [15] = test: Antifungal activity against Aspergillus niger MTCC 2546 at 500 ug/ml after 18 hr by cup-plate method; details: MTCC 2546, 18 h, read-out: DIZ
Bacillus subtilis [16] = test: Antibacterial activity against Bacillus subtilis MTCC 441 after 24 hr by broth dilution method; details: MTCC 441, 24 h
Staphylococcus aureus [17] = test: Antibacterial activity against Staphylococcus aureus MTCC 1430 after 24 hr by broth dilution method; details: MTCC 1430, 24 h
Pseudomonas fluorescens [18] = test: Antibacterial activity against Pseudomonas fluorescens MTCC 2421 at 1500 ug/ml after 18 hr by cup-plate method; details: MTCC 2421, 18 h, read-out: DIZ
Penicillium chrysogenum [19] = test: Antifungal activity against Penicillium chrysogenum MTCC 161 at 100 ug/ml after 18 hr by cup-plate method; details: MTCC 161, 18 h, read-out: DIZ
Bacillus pumilus [20] = test: Antibacterial activity against Bacillus pumilus MTCC 1456 at 200 ug/ml after 18 hr by cup-plate method; details: MTCC 1456, 18 h, read-out: DIZ
Escherichia coli [21] = test: Antibacterial activity against Escherichia coli MTCC 1573 at 100 ug/ml after 18 hr by cup-plate method; details: MTCC 1573, 18 h, read-out: DIZ
Pseudomonas aeruginosa [22] = test: Antibacterial activity against Pseudomonas aeruginosa MTCC 424 at 500 ug/ml after 18 hr by cup-plate method; details: MTCC 424, 18 h, read-out: DIZ
Pseudomonas aeruginosa [23] = test: Antibacterial activity against Pseudomonas aeruginosa MTCC 424 after 24 hr by broth dilution method; details: MTCC 424, 24 h
Escherichia coli [24] = test: Antibacterial activity against Escherichia coli MTCC 1573 after 24 hr by broth dilution method; details: MTCC 1573, 24 h
Pseudomonas aeruginosa [25] = test: Antibacterial activity against Pseudomonas aeruginosa MTCC 424 at 100 ug/ml after 18 hr by cup-plate method; details: MTCC 424, 18 h, read-out: DIZ
Pseudomonas fluorescens [26] = test: Antibacterial activity against Pseudomonas fluorescens MTCC 2421 at 500 ug/ml after 18 hr by cup-plate method; details: MTCC 2421, 18 h, read-out: DIZ
Escherichia coli [27] = test: Antibacterial activity against Escherichia coli MTCC 1573 at 500 ug/ml after 18 hr by cup-plate method; details: MTCC 1573, 18 h, read-out: DIZ

MIC (Micrococcus luteus [2]): 300 µg/mL (≈ 1250 µM) | MIC (Bacillus subtilis [16]): 400 µg/mL (≈ 1670 µM) | MIC (Staphylococcus aureus [17]): 400 µg/mL (≈ 1670 µM) | MIC (Pseudomonas aeruginosa [23]): 300 µg/mL (≈ 1250 µM) | MIC (Escherichia coli [24]): 400 µg/mL (≈ 1670 µM)
Structure (SMILES): O=c1c(/C=N/c2nc[nH]n2)coc2ccccc12
zone of inhibition at 1500 µg/mL (Micrococcus luteus [1]): 23 mm | zone of inhibition at 100 µg/mL (Aspergillus niger [3]): 16 mm | zone of inhibition at 1000 µg/mL (Pseudomonas aeruginosa [4]): 18 mm | zone of inhibition at 200 µg/mL (Micrococcus luteus [5]): 15 mm | zone of inhibition at 100 µg/mL (Pseudomonas fluorescens [6]): 13 mm | zone of inhibition at 1000 µg/mL (Pseudomonas fluorescens [7]): 19 mm | zone of inhibition at 1000 µg/mL (Penicillium chrysogenum [8]): 20 mm | zone of inhibition at 500 µg/mL (Bacillus subtilis [9]): 17 mm | zone of inhibition at 1500 µg/mL (Staphylococcus aureus [10]): 19 mm | zone of inhibition at 1000 µg/mL (Aspergillus niger [11]): 20 mm | zone of inhibition at 100 µg/mL (Bacillus pumilus [12]): 14 mm | zone of inhibition at 200 µg/mL (Pseudomonas aeruginosa [13]): 15 mm | zone of inhibition at 1500 µg/mL (Bacillus pumilus [14]): 21 mm | zone of inhibition at 500 µg/mL (Aspergillus niger [15]): 19 mm | zone of inhibition at 1500 µg/mL (Pseudomonas fluorescens [18]): 20 mm | zone of inhibition at 100 µg/mL (Penicillium chrysogenum [19]): 15 mm | zone of inhibition at 200 µg/mL (Bacillus pumilus [20]): 16 mm | zone of inhibition at 100 µg/mL (Escherichia coli [21]): 13 mm | zone of inhibition at 500 µg/mL (Pseudomonas aeruginosa [22]): 16 mm | zone of inhibition at 100 µg/mL (Pseudomonas aeruginosa [25]): 14 mm | zone of inhibition at 500 µg/mL (Pseudomonas fluorescens [26]): 17 mm | zone of inhibition at 500 µg/mL (Escherichia coli [27]): 15 mm
